Data from patent US20060122195A1, “Sulphonamide compounds that modulate chemokine receptor activity (ccr4)” (priority 2003, published 2006).

Assays:
[1] = target: T1, human recombinant CCR4 receptor (Homo sapiens, UniProt P51679); assay: FMAT whole cell binding assay (FB-MDC binding to CHO-K1 cells expressing CCR4); conditions: inhibition of FB-MDC binding to CHO-K1 cells expressing human recombinant CCR4; two hours incubation at room temperature; mean
T1 construct: Brussels, Belgium; host or cells: CHO-K1
T1 sequence (P51679 1-360): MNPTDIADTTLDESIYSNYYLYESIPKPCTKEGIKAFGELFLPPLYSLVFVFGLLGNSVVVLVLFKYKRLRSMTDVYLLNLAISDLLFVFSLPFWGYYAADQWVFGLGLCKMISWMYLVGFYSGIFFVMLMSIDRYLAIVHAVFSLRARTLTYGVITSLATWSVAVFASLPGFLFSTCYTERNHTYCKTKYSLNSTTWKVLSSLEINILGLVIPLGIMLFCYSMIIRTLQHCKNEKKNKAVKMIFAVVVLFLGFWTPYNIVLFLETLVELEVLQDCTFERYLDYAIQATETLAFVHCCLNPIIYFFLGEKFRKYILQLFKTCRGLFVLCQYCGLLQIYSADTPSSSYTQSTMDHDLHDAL
Description: FMAT Whole Cell Binding Assay
CHO-K1 cells stably expressing the human recombinant CCR4 receptor (Euroscreen; Brussels, Belgium) were cultured in NUT.MIX.F—12(HAM) medium with glutamax-1, containing 10% (v/v) foetal bovine serum and 400 μg ml^−1 geneticin
Cells were harvested at approximately 70% confluence by treatment with a cell dissociation buffer, and seeded at 5×10^3 cells/100 μl culture medium into wells of a black Costar clear-bottomed 96-well microtitre plates. Plates were incubated overnight at 37° C. in 5% CO2 and used the following day.
Before use, the cell plates were washed twice with 100 μl Hanks balanced salt solution (HBSS). To each well was then added 65 μl of HBSS, 10 μL of 10% DMSO in HBSS±test compound and then 25 μL of 2.8 nM FB-MDC (Applied Biosystems). This fluorescent probe was prepared from a 10 μM stock in 0.08% (v/v) TFA/16% (v/v) acetonitrile, diluted into HBSS.
After two hours incubation in the dark at room temperature, the plates were analysed in an FMAT8100 reader (Applied Biosystems) to measure fluorescence that was associated with binding of FB-MDC to the cells. Compound activity was determined as an pIC50 [log(concentration of compound that results in 50% inhibition)], comparing fluorescence in control and background wells.

SMILES	melting point	IC50 [1]
COc1nc(SCC(O)c2ccncc2)cnc1NS(=O)(=O)c1cccc(Cl)c1Cl (centres unmarked) [Example 23, 2,3-Dichloro-N-[5-[[2-hydroxy-2-(4-pyridinyl)ethyl]thio]-3-methoxypyrazinyl]benzenesulfonamide]	176 to 177 °C	
CNC(=O)[C@@H](N)CSc1nc(OC)c(NS(=O)(=O)c2cccc(Cl)c2Cl)nc1Cl [Example 28, (2R)-2-Amino-3-[[3-chloro-5-[[(2,3-dichlorophenyl)sulfonyl]amino]-6-methoxypyrazinyl]thio]-N-methylpropanamide]	150 to 155 °C	
COC(=O)[C@@H](N)CSc1nc(OC)c(NS(=O)(=O)c2cccc(Cl)c2Cl)nc1Cl [Example 8, S-[3-Chloro-5-[[(2,3-dichlorophenyl)sulfonyl]amino]-6-methoxypyrazinyl]-L-cysteine, methyl ester]	170 to 173 °C	
CNC(=O)[C@@H](N)CSc1cnc(NS(=O)(=O)c2cccc(Cl)c2Cl)c(OC)n1 [Example 5, (2R)-2-Amino-3-[[5-[[(2,3-dichlorophenyl)sulfonyl]amino]-6-methoxypyrazinyl]thio]-N-methyl-propanamide]	160 to 164 °C	
COc1nc(SC[C@H](N)C(=O)O)cnc1NS(=O)(=O)c1cccc(Cl)c1Cl [Example 3, S-[5-[[(2,3-Dichlorophenyl)sulfonyl]amino]-6-methoxypyrazinyl]-L-cysteine]	180 to 190 °C	
COC(=O)[C@@H](N)CSc1nc(OC)c(NS(=O)(=O)c2cccc(Cl)c2Cl)nc1C	164 to 168 °C	
COc1nc(SC[C@H](N)CO)c(Cl)nc1NS(=O)(=O)c1cccc(Cl)c1Cl [Example 10, N-[5-[[(2R)-2-Amino-3-hydroxypropyl]thio]-6-chloro-3-methoxypyrazinyl]-2,3-dichlorobenzenesulfonamide]	255 to 256 °C	
COc1nc(SCC(N)c2nccn2C)cnc1NS(=O)(=O)c1cccc(Cl)c1Cl (centres unmarked) [Example 27, N-[5-[[2-Amino-2-(1-methyl-1H-imidazol-2-yl)ethyl]thio]-3-methoxypyrazinyl]-2,3-dichlorobenzenesulfonamide]	187 to 189 °C	
COc1nc(SCC(O)c2nccs2)cnc1NS(=O)(=O)c1cccc(Cl)c1Cl (centres unmarked) [Example 15, 2,3-Dichloro-N-[5-[[2-hydroxy-2-(2-thiazolyl)ethyl]thio]-3-methoxypyrazinyl]-benzenesulfonamide]		398 nM

Other lines, results leading:

melting point	IC50 [1]	SMILES
188 to 190 °C		COc1nc(SCC(O)c2cccnc2)cnc1NS(=O)(=O)c1cccc(Cl)c1Cl (centres unmarked) [Example 21, 2,3-Dichloro-N-[5-[[2-hydroxy-2-(3-pyridinyl)ethyl]thio]-3-methoxypyrazinyl]benzenesulfonamide]
172 to 174 °C		COc1nc(SCC(N)c2ccccn2)cnc1NS(=O)(=O)c1cccc(Cl)c1Cl (centres unmarked) [Example 26, N-[5-[[2-Amino-2-(2-pyridinyl)ethyl]thio]-3-methoxypyrazinyl]-2,3-dichlorobenzenesulfonamide]
68 to 80 °C		CNC(=O)[C@@H](N)CSc1nc(OC)c(NS(=O)(=O)c2cccc(Cl)c2Cl)nc1C [Example 29, (2R)-2-Amino-3-[[5[[(2,3-dichlorophenyl)sulfonyl]amino]methoxy-3-methylpyrazinyl]thio]-N-methylpropanamide]
143 to 145 °C		COc1nc(SCC(O)c2ccccn2)cnc1NS(=O)(=O)c1cccc(Cl)c1Cl (centres unmarked) [Example 24, 2,3-Dichloro-N-[5-[[2-hydroxy-2-(2-pyridinyl)ethyl]thio]-3-methoxypyrazinyl]benzenesulfonamide]
168 to 169 °C		COc1nc(SCC(N)c2nccs2)cnc1NS(=O)(=O)c1cccc(Cl)c1Cl (centres unmarked) [Example 30, N-[5-[[2-Amino-2-(2-thiazolyl)ethyl]thio]-3-methoxypyrazinyl]-2,3-dichlorobenzenesulfonamide]
175 to 178 °C		COc1nc(SCC(N)c2cccnc2)cnc1NS(=O)(=O)c1cccc(Cl)c1Cl (centres unmarked) [Example 22, N-[5-[[2-Amino-2-(3-pyridinyl)ethyl]thio]-3-methoxypyrazinyl]-2,3-dichloro benzenesulfonamide]
148 to 152 °C	631 nM	COc1nc(SC[C@H](N)C(N)=O)cnc1NS(=O)(=O)c1cccc(Cl)c1Cl [Example 4, (2R)-2-Amino-3-[[5-[[(2,3-dichlorophenyl)sulfonyl]amino]-6-methoxypyrazinyl]thio]propanamide]
136 to 138 °C		COc1nc(SCC(O)CO)cnc1NS(=O)(=O)c1cccc(Cl)c1Cl (centres unmarked) [Example 19, 2,3-Dichloro-N-[5-[(2,3-dihydroxypropyl)thio]-3-methoxypyrazinyl]benzenesulfonamide]
187 to 190 °C		COc1nc(SC[C@H](N)C(=O)N(C)C)cnc1NS(=O)(=O)c1cccc(Cl)c1Cl [Example 6, (2R)-2-Amino-3-[[5-[[(2,3-dichlorophenyl)sulfonyl]amino]-6-methoxypyrazinyl]thio]-N,N-dimethylpropanamide]
141 to 143 °C		COc1nc(SCC(O)c2ccccc2)cnc1NS(=O)(=O)c1cccc(Cl)c1Cl (centres unmarked) [Example 20, 2,3-Dichloro-N-[5-[(2-hydroxy-2-phenylethyl)thio]-3-methoxypyrazinyl]benzenesulfonamide]
170 to 173 °C		COc1nc(SC[C@H](N)C(=O)O)c(Cl)nc1NS(=O)(=O)c1cccc(Cl)c1Cl [Example 9, S-[3-Chloro-5[[(2,3-dichlorophenyl)sulfonyl]amino]-6-methoxypyrazinyl]-L-cysteine]
88 to 90 °C		COC(=O)[C@@H](O)CSc1cnc(NS(=O)(=O)c2cccc(Cl)c2Cl)c(OC)n1 [Example 25, 3-[[5[[(2,3-Dichlorophenyl)sulfonyl]amino]-6-methoxypyrazinyl]thio]-(2R)-2-hydroxypropanoic acid, methyl ester]
170 to 174 °C		COC(=O)[C@@H](N)CSc1cnc(NS(=O)(=O)c2cccc(Cl)c2Cl)c(OC)n1 [Example 2, S-[5[[(2,3-Dichlorophenyl)sulfonyl]amino]-6-methoxypyrazinyl]-L-cysteine, methyl ester]
